In publication PMC9207296, “Photoacoustic imaging reveals mechanisms of rapid-acting insulin formulations dynamics at the injection site” (Molecular Metabolism, 2022):

Tests used:
[1] = OR-PAM quantification and compartmental kinetic modelling of injection-site absorption in mouse ear; assay type: in vivo; settings: sulfo-cy7.5 dye without lispro, n = 3, result in words
Protocol: We used 34 gauge needles (207434, Hamilton) with microliter syringes to inject insulin volumes from 0.06 μL to 0.10 μL in the mouse ear. To perform the injection, the syringes were fitted onto a syringe dispenser (PB600, Hamilton), which enabled rapid and controlled injection. The needle was inserted in the mouse ear at an oblique angle (≤45°) and then the desired volume of the dye-labeled insulin lispro formulation was injected using the syringe dispenser. To perform 0.06 μL injections, a 1 μL syringe (80100, Hamilton) was used through which a minimum of 0.02 μL of liquid could be dispensed. To inject 0.1 μL volume, a 5 μL (7634-01, Hamilton) syringe was used. To perform 0.06 μL injection, the 1 μL syringe was fitted with a glass coupler (55752-01, Hamilton) and a luer adaptor (55753-01, Hamilton) to connect to the 34-gauge needle. The 5 μL syringe could be directly connected to the needle.
Mouse experiments were approved as per the IACUC regulations at Caltech. Hsd:Athymic Nude-Fox1^nu mice aged 6–10 weeks (Envigo) were used in all the photoacoustic experiments. The mouse body temperature was maintained at 37 °C during imaging. […]
Since the time required for taking each image is around 220 s, we consider the mid-point of time at which the imaging was started and ended as the imaging time-point. […] All the p values were calculated using unpaired two-sample t-tests. […]

[2] = Photobleaching test of dye-labeled lispro in expired mouse ear (OR-PAM); assay type: physicochemical; settings: 400 μM in Humalog formulation in expired mouse ear; 21 imaging sessions over 3 hours; 780 nm
Protocol: Before performing live animal experiments, we injected the dye-labeled lispro formulation in the ear of an expired mouse to study the progression of photoacoustic signals to assess photobleaching.
[picture] Figure S1: Photobleaching test of Cy7.5 dye-labeled lispro (400 μM) in Humalog formulation injected in a dead mouse ear. Over the course of 3 hours, 21 imaging sessions were performed and no decrease of photoacoustic signals were found. Scale bar = 500 μm.

With sulfo-cyanine7.5 [sulfo-cy7.5 dye] the “injection-site absorption of dye alone, Lyumjev versus Humalog excipient formulation” value [1] was “absorbed at a faster rate in the Lyumjev formulation”.
For “sulfo-cy7.5 insulin lispro: insulin lispro acylated at the B-chain lysine B28 epsilon amino group with sulfo-cyanine7.5 NHS ester”, the “photostability (photoacoustic signal)” value [2] was “no decrease in photoacoustic signals after 21 imaging sessions”.
